SMILES strings stand for the structures.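 How tested: cells in 96-well plates exposed to compound for 48 hours at five concentrations. At the GI50, growth is halved.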 Activity calls are given as the source filed them. No stated cut-off is given here; in the data, active = GI50 up to about 1.1 µM and inactive = higher.

Some test systems named below: A498; A549; ACHN; HCC 2998; HOP-92; HT-29; KM12; LOX IMVI; LXFL 529; M14; MCF7; MDA-MB-231; NCI-H460; OVCAR-5; SF-268; SF-539; SW-620; TK-10; U-251; UACC-62.
Common to all, as to experiment: NCI-60 cell line screen, 48 h

Regarding `CCN(CC)CC(=O)O[C@]1(CC)C(=O)OCc2c1cc1n(c2=O)Cc2cc3ccccc3nc2-1`, the GI50 in the test on A498 was 58.3 nM (active); in the test with A549, 23.7 nM (active); with ACHN it was < 10 nM (active); in the test with HCC 2998, 149 nM (active); in the test on HOP-92, 211 nM (active); with HT-29, 95.7 nM (active). The GI50 in the test with KM12 is 149 nM (active); with LOX IMVI, < 11.6 nM (active); in the test on LXFL 529 it was 404 nM (active); in the test on M14, < 20.1 nM (active); with MCF7 it was < 10 nM (active); with MDA-MB-231, 3370 nM (inactive). Further, the GI50 is < 10 nM (active) in the test on NCI-H460; 88.5 nM (active) in the test with OVCAR-5; < 12 nM (active) with SF-268; < 13.9 nM (active) with SF-539; 94.6 nM (active) in the test on SW-620; 1360 nM (inactive) in the test with TK-10. For the same compound, the GI50 in the test with U-251 and in the test on UACC-62 was < 10 nM (active) each time.

As to `N#Cc1cc([N+](=O)[O-])ccc1NC(=O)/C(=N\NC(=O)c1ccncc1)C(c1cnc2ccc([N+](=O)[O-])cc2n1)[N+](=O)[O-]` (stereo not drawn), the GI50 in the test with A498 was 8490 nM (inactive); with A549, 3640 nM (inactive); in the test on ACHN, 2540 nM (inactive); with HCC 2998, 9270 nM (inactive); in the test with HOP-92, 9180 nM (inactive); with HT-29, 19200 nM (inactive). Besides, the GI50 with KM12 was 2390 nM (inactive); with LOX IMVI it was 759 nM (active); with LXFL 529, 1570 nM (inactive); with M14, 1630 nM (inactive); in the test with MCF7 it was 1550 nM (inactive); with MDA-MB-231, 1990 nM (inactive). For the same compound, the GI50 in the test on NCI-H460 is 2130 nM (inactive); in the test on OVCAR-5 it was 9400 nM (inactive); in the test on SF-268, 2860 nM (inactive); in the test on SF-539, 2070 nM (inactive); with SW-620, 2400 nM (inactive); in the test with TK-10, 14200 nM (inactive). Also, the values for the GI50 with U-251 and with UACC-62 were 2150 nM (inactive) and 1520 nM (inactive), respectively.

As for `COc1ccc(/C(C)=N/NC(N)=S)c(OC)c1`, the GI50 in the test on A498, in the test with A549, in the test on ACHN, in the test with HCC 2998, in the test with HOP-92 and in the test on HT-29 was > 100000 nM (inactive) throughout. Also, the GI50 with KM12, in the test with LOX IMVI, with LXFL 529, with M14, with NCI-H460 and in the test on OVCAR-5 was > 100000 nM (inactive) in each case. In addition, the GI50 was > 100000 nM (inactive) in the test with SF-268; > 100000 nM (inactive) with SF-539; 43300 nM (inactive) with SW-620; > 100000 nM (inactive) in the test on TK-10; 49100 nM (inactive) with U-251; > 100000 nM (inactive) with UACC-62.

For the compound `O=c1cc(-c2ccccc2F)[nH]c2cc3c(cc12)OCO3`, the GI50 in the test on A498 is 72.4 nM (active); in the test with A549, 204 nM (active); in the test on ACHN, 149 nM (active); with HCC 2998 it was 107 nM (active); in the test on HOP-92 it was 212 nM (active); in the test on HT-29 it was 94.2 nM (active). In addition, the GI50 is 34.4 nM (active) in the test on KM12; 119 nM (active) in the test on LOX IMVI; 40.3 nM (active) in the test with LXFL 529; 52.8 nM (active) in the test with M14; 95.3 nM (active) in the test with MCF7; 290 nM (active) with MDA-MB-231. The GI50 in the test with NCI-H460 is 107 nM (active); in the test with OVCAR-5, 1310 nM (inactive); with SF-268 it was 504 nM (active); in the test on SF-539, 70.2 nM (active); in the test on SW-620 it was 35.6 nM (active); with TK-10 it was 2880 nM (inactive). For the same compound, the GI50 with U-251 is 99.5 nM (active); in the test with UACC-62 it was 42 nM (active).

Values taken from ChEMBL document CHEMBL1201862, “PubChem BioAssay data set” (2004).
